Measured values as given in US12391648B2, “Pyridyloxy thioester derivative and preparation method therefor, herbicidal composition, and application” (Qingdao Kingagroot Chemical Compound Co., Ltd., priority 2018, dated 2025).

Columns and labels:
Experiment in all cases: Post-emergence test experiment (Table 3, 1000 g/ha)
Assay type in all cases: in vivo
Settings in all cases: post-emergence spray, after 3 weeks, fresh weight inhibition
Galium spurium = tested on: Galium spurium
From the text: (§1) The activity level standard of harmful plants destruction (i. e. growth inhibition rate) is as follows: • Level 5: the growth inhibition rate is greater than 85%; • Level 4: the growth inhibition rate is equal to or greater than 60% and less than 85%; • Level 3: the growth inhibition rate is equal to or greater than 40% and less than 60%; • Level 2: the growth inhibition rate is equal to or greater than 20% and less than 40%; • Level 1: the growth inhibition rate is equal to or greater than 5% and less than 20%; • Level 0: the growth inhibition rate is less than 5%;
(§2) The above described growth inhibition rate is fresh weight inhibition rate.
(§3) Post-emergence test experiment: Monocotyledonous and dicotyledonous weed seeds and main crop seeds (i. e. wheat, corn, rice, soybean, cotton, oilseed, millet and sorghum.) were put into a plastic pot loaded with soil. Then covered with 0.5-2 cm soil, the seeds were allowed to grow in good greenhouse environment. The test plants were treated at 2-3 leaf stage 2 weeks after sowing. The test compounds of the invention were dissolved with acetone respectively, then added with tween-80, and using 1.5 liters per hectare of an emulsible concentrate of methyl oleate as a synergist, and diluted by certain amount of water to certain concentration. The solution was sprayed to the plants with a sprayer. Then the plants were cultured for 3 weeks in the greenhouse, and the experiment result of weed controlling effect after 3 weeks was listed in tables 3-4.

Monochoria vaginalis = tested on: Monochoria vaginalis
From the text: as §1, §2, §3

Abutilon theophrasti = tested on: Abutilon theophrasti
From the text: as §1, §2, §3

Setaria viridis = tested on: Setaria viridis
From the text: as §1, §2, §3

Digitaria sanguinalis = tested on: Digitaria sanguinalis
From the text: as §1, §2, §3

Leptochloa chinensis = tested on: Leptochloa chinensis
From the text: as §1, §2, §3

Structure (SMILES) | Activity level (growth inhibition rate) Galium spurium (Galium spurium) | Activity level (growth inhibition rate) Monochoria Vaginalis (Monochoria vaginalis) | Activity level (growth inhibition rate) Abutilon theophrasti (Abutilon theophrasti) | Activity level (growth inhibition rate) Setaria viridis (Setaria viridis) | Activity level (growth inhibition rate) Digitaria sanguinalis (Digitaria sanguinalis) | Activity level (growth inhibition rate) Leptochloa chinensis (Leptochloa chinensis)
CSC(=O)C(C)Oc1nc(F)c(F)c(N)c1F (stereo not drawn) [Compound 1] | 5 (Level 5: the growth inhibition rate is greater than 85%) | 5 (Level 5: the growth inhibition rate is greater than 85%) | 5 (Level 5: the growth inhibition rate is greater than 85%) | 5 (Level 5: the growth inhibition rate is greater than 85%) | 5 (Level 5: the growth inhibition rate is greater than 85%) | 5 (Level 5: the growth inhibition rate is greater than 85%)
CSC(=O)C(C)Oc1nc(Cl)c(Cl)c(N)c1Cl (stereo not drawn) [Compound 2] | 5 (Level 5: the growth inhibition rate is greater than 85%) | 5 (Level 5: the growth inhibition rate is greater than 85%) | 5 (Level 5: the growth inhibition rate is greater than 85%) | 5 (Level 5: the growth inhibition rate is greater than 85%) | 5 (Level 5: the growth inhibition rate is greater than 85%) | 5 (Level 5: the growth inhibition rate is greater than 85%)
CC(C)=NOCCSC(=O)C(C)Oc1nc(C)c(Cl)c(N)c1Cl (stereo not drawn) [Compound 5] | 5 (Level 5: the growth inhibition rate is greater than 85%) | 5 (Level 5: the growth inhibition rate is greater than 85%) | 5 (Level 5: the growth inhibition rate is greater than 85%) | 5 (Level 5: the growth inhibition rate is greater than 85%) | 5 (Level 5: the growth inhibition rate is greater than 85%) | 5 (Level 5: the growth inhibition rate is greater than 85%)
CSC(=O)C(Oc1nc(F)c(Cl)c(N)c1Cl)[N+](=O)[O-] (stereo not drawn) [Compound 49] | 5 (Level 5: the growth inhibition rate is greater than 85%) | 5 (Level 5: the growth inhibition rate is greater than 85%) | 5 (Level 5: the growth inhibition rate is greater than 85%) |  |  | 
COC(Oc1nc(F)c(Cl)c(N)c1Cl)C(=O)SC (stereo not drawn) [Compound 50] | 5 (Level 5: the growth inhibition rate is greater than 85%) | 5 (Level 5: the growth inhibition rate is greater than 85%) | 5 (Level 5: the growth inhibition rate is greater than 85%) |  |  | 
CSC(=O)C(C=O)Oc1nc(F)c(Cl)c(N)c1Cl (stereo not drawn) [Compound 51] | 5 (Level 5: the growth inhibition rate is greater than 85%) | 5 (Level 5: the growth inhibition rate is greater than 85%) | 5 (Level 5: the growth inhibition rate is greater than 85%) |  |  | 
COC(=O)C(Oc1nc(F)c(Cl)c(N)c1Cl)C(=O)SC (stereo not drawn) [Compound 52] | 5 (Level 5: the growth inhibition rate is greater than 85%) | 5 (Level 5: the growth inhibition rate is greater than 85%) | 5 (Level 5: the growth inhibition rate is greater than 85%) |  |  | 
CSC(=O)C(Oc1nc(F)c(Cl)c(N)c1Cl)c1cccs1 (stereo not drawn) [Compound 53] | 5 (Level 5: the growth inhibition rate is greater than 85%) | 5 (Level 5: the growth inhibition rate is greater than 85%) | 5 (Level 5: the growth inhibition rate is greater than 85%) |  |  | 
CSC(=O)C(Oc1nc(F)c(Cl)c(N)c1Cl)c1ccco1 (stereo not drawn) [Compound 54] | 5 (Level 5: the growth inhibition rate is greater than 85%) | 5 (Level 5: the growth inhibition rate is greater than 85%) | 5 (Level 5: the growth inhibition rate is greater than 85%) |  |  | 
CSC(=O)C(Oc1nc(F)c(Cl)c(N)c1Cl)c1cscn1 (stereo not drawn) [Compound 55] | 5 (Level 5: the growth inhibition rate is greater than 85%) | 5 (Level 5: the growth inhibition rate is greater than 85%) | 5 (Level 5: the growth inhibition rate is greater than 85%) |  |  | 
CCn1nccc1C(Oc1nc(F)c(Cl)c(N)c1Cl)C(=O)SC (stereo not drawn) [Compound 56] | 5 (Level 5: the growth inhibition rate is greater than 85%) | 5 (Level 5: the growth inhibition rate is greater than 85%) | 5 (Level 5: the growth inhibition rate is greater than 85%) |  |  | 
CSC(=O)C(Oc1nc(F)c(Cl)c(N)c1Cl)c1cn(C)nc1C (stereo not drawn) [Compound 57] | 5 (Level 5: the growth inhibition rate is greater than 85%) | 5 (Level 5: the growth inhibition rate is greater than 85%) | 5 (Level 5: the growth inhibition rate is greater than 85%) |  |  | 
CSC(=O)C(Oc1nc(F)c(Cl)c(N)c1Cl)c1cnn(C(F)F)c1 (stereo not drawn) [Compound 58] | 5 (Level 5: the growth inhibition rate is greater than 85%) | 5 (Level 5: the growth inhibition rate is greater than 85%) | 5 (Level 5: the growth inhibition rate is greater than 85%) |  |  | 
CSC(=O)C(Oc1nc(F)c(Cl)c(N)c1Cl)c1ccccc1 (stereo not drawn) [Compound 59] | 5 (Level 5: the growth inhibition rate is greater than 85%) | 5 (Level 5: the growth inhibition rate is greater than 85%) | 5 (Level 5: the growth inhibition rate is greater than 85%) |  |  | 
CCSC(=O)C(Oc1nc(F)c(Cl)c(N)c1Cl)c1ccc(C(F)(F)F)cc1 (stereo not drawn) [Compound 60] | 5 (Level 5: the growth inhibition rate is greater than 85%) | 5 (Level 5: the growth inhibition rate is greater than 85%) | 5 (Level 5: the growth inhibition rate is greater than 85%) |  |  | 
CSC(=O)C(Oc1nc(F)c(Cl)c(N)c1Cl)c1cccc(Cl)c1 (stereo not drawn) [Compound 61] | 5 (Level 5: the growth inhibition rate is greater than 85%) | 5 (Level 5: the growth inhibition rate is greater than 85%) | 5 (Level 5: the growth inhibition rate is greater than 85%) |  |  | 
COc1ccc(C(Oc2nc(F)c(Cl)c(N)c2Cl)C(=O)SC)c(C)c1 (stereo not drawn) [Compound 62] | 5 (Level 5: the growth inhibition rate is greater than 85%) | 5 (Level 5: the growth inhibition rate is greater than 85%) | 5 (Level 5: the growth inhibition rate is greater than 85%) |  |  | 
CSC(=O)C(Oc1nc(F)c(Cl)c(N)c1Cl)c1cccnc1 (stereo not drawn) [Compound 63] | 5 (Level 5: the growth inhibition rate is greater than 85%) | 5 (Level 5: the growth inhibition rate is greater than 85%) | 5 (Level 5: the growth inhibition rate is greater than 85%) |  |  | 
CSC(=O)C(Oc1nc(F)c(Cl)c(N)c1Cl)c1cncnc1 (stereo not drawn) [Compound 64] | 5 (Level 5: the growth inhibition rate is greater than 85%) | 5 (Level 5: the growth inhibition rate is greater than 85%) | 5 (Level 5: the growth inhibition rate is greater than 85%) |  |  | 
CSC(=O)C(Oc1nc(F)c(Cl)c(N)c1Cl)c1ccc2ccccc2c1 (stereo not drawn) [Compound 65] | 5 (Level 5: the growth inhibition rate is greater than 85%) | 5 (Level 5: the growth inhibition rate is greater than 85%) | 5 (Level 5: the growth inhibition rate is greater than 85%) |  |  | 
CSC(=O)C(Cc1ccccc1)Oc1nc(F)c(Cl)c(N)c1Cl (stereo not drawn) [Compound 126] | 5 (Level 5: the growth inhibition rate is greater than 85%) | 5 (Level 5: the growth inhibition rate is greater than 85%) | 5 (Level 5: the growth inhibition rate is greater than 85%) |  |  | 
